Read-outs that look alike come from different tables or passages of the source.
Test system: IL-6
Experiment: TNF-α-induced IL-6 production determined by IL-6 ELISA in HAEC
Assay type: cell-based, human
Conditions: HAEC; for activity at 10 µM / activity at 5 µM: 24 h; for Inhibition of TNF-induced IL6 production: class of % of control IL6 production; for activity at 5 µM: read-out: % IL6 production compare to TNF stimulation of IL6 (100%), @ 5 uM
Method: Human aortic endothelial cells (HAEC, Clonetics) were cultured according to manufacturer in growth medium (Clonetics): basal medium containing human epidermal growth factor, hydrocortisone, vascular endothelial growth factor, heparin binding growth factor-B, long R3-insulin-like growth factor-1, ascorbic acid, gentamicin/amphotericin and 5% FBS. These cell were allowed to reach at least 90% confluency before subjected to experimental treatments. Glycated human serum albumin (G-HSA) was from US Biologicals. Tumor necrosis factor α was from R&D Systems.
[…] All treatments, compound-added and controls were carried out in serum free media containing 0.2% albumin. Media from all conditions were collected and used for IL-6 ELISA.
IL-6 ELISA was carried out using human IL-6 DuoSet ELISA development kit as described by manufacturer (R&D Systems). Mouse anti-human Il-6 was used as the capture antibody (2 ug/ml) and biotinylated goat anti-human IL-6 (200 ng/ml) was used as the detection antibody. Culture media were incubated with capture antibody (in 96 well) for 2 h at room temperature. Wells were washed three times with wash buffer (0.05% tween-20 in phosphate buffered saline (PBS) pH 7.4) followed by incubation with detection antibody for 2 h at room temperature. Following three washes wells were incubated with Streptavidin-HRP for 20 min. Color development was read at 450 nm in a Microplate reader.

[1] = Homo sapiens, Compds tested @ 10 uM, IL6, read-out: % IL6 production compare to TNF stimulation of IL6 (100%)
[2] = Homo sapiens, read-out: % IL6 production compare to TNF stimulation of IL6 (100%), Compds tested @ 10 uM, IL6

## CCN1CCCC1CNc1nc(Nc2ccc(N3CCN(C)CC3)cc2)nc(NC2CCCCCC2)n1 (stereo not drawn) [Compound 28, N^2-cycloheptyl-N^4-[(1-ethyl-2-pyrrolidinyl)methyl]-N^6-[4-(4-methyl-1-piperazinyl)phenyl]-1,3,5-triazine-2,4,6-triamine]
[1]
  activity at 10 µM: 23%

## CCN1CCCC1CNc1nc(Nc2ccc(OC)c(Cl)c2)nc(NC2CCCCCC2)n1 (stereo not drawn) [Compound 48, N^2-(3-chloro-4-methoxyphenyl)-N^4-cycloheptyl-N^6-[(1-ethyl-2-pyrrolidinyl)methyl]-1,3,5-triazine-2,4,6-triamine]
Homo sapiens, IL6, unit inferred, read-out: IC50 (TNF stimulation of IL6)
  IC50: 4.3 µM

## CCNc1nc(NCC2CCCN2CC)nc(Nc2ccc(OC)c(F)c2)n1 (stereo not drawn) [Compound 51, N^2-ethyl-N^4-[(1-ethyl-2-pyrrolidinyl)methyl]-N^6-(3-fluoro-4-methoxyphenyl)-1,3,5-triazine-2,4,6-triamine]
[1]
  activity at 10 µM: 1%

## CCN1CCCC1CNc1nc(Nc2ccc(OC)c(F)c2)nc(NC2CCCCC2)n1 (stereo not drawn) [Compound 55, N^2-cyclohexyl-N^4-[(1-ethyl-2-pyrrolidinyl)methyl]-N^6-(3-fluoro-4-methoxyphenyl)-1,3,5-triazine-2,4,6-triamine]
[1]
  activity at 10 µM: 1%

## CCN1CCCC1CNc1nc(Nc2ccc(OC)c(F)c2)nc(NC2CCCC2)n1 (stereo not drawn) [Compound 56, N^2-cyclopentyl-N^4-[(1-ethyl-2-pyrrolidinyl)methyl]-N^6-(3-fluoro-4-methoxyphenyl)-1,3,5-triazine-2,4,6-triamine]
[1]
  activity at 10 µM: 1%

## CCN1CCCC1CNc1nc(Nc2ccc(OC)c(F)c2)nc(NC2CCC(C)CC2)n1 (stereo not drawn) [Compound 60, N^2-[(1-ethyl-2-pyrrolidinyl)methyl]-N^4-(3-fluoro-4-methoxyphenyl)-N^6-(4-methylcyclohexyl)-1,3,5-triazine-2,4,6-triamine]
[1]
  activity at 10 µM: 1%

## CCN1CCCC1CNc1nc(Nc2ccc(OC)c(F)c2)nc(N2CCN(C(C)=O)CC2)n1 (stereo not drawn) [Compound 63, 6-(4-acetyl-1-piperazinyl)-N^2-[(1-ethyl-2-pyrrolidinyl)methyl]-N^4-(3-fluoro-4-methoxyphenyl)-1,3,5-triazine-2,4-diamine]
[1]
  activity at 10 µM: 26%

## CCOC(=O)N1CCN(c2nc(NCC3CCCN3CC)nc(Nc3ccc(OC)c(F)c3)n2)CC1 (stereo not drawn) [Compound 64, Ethyl 4-{4-{[(1-ethyl-2-pyrrolidinyl)methyl]amino}-N^6-[(3-fluoro-4-methoxyphenyl)amino]-1,3,5-triazin-2-yl}-1-piperazinecarboxylate]
[1]
  activity at 10 µM: 23%

## COc1ccc(Nc2nc(NC3CCCCCC3)nc(NC(C)(C)C)n2)cc1F [Compound 77, N^2-(tert-butyl)-N^4-cycloheptyl-N^6-(3-fluoro-4-methoxyphenyl)-1,3,5-triazine-2,4,6-triamine]
[1]
  activity at 10 µM: 21%

## COc1ccc(Nc2nc(NCc3ccccc3)nc(NC3CCCCCC3)n2)cc1F [Compound 78, N^2-benzyl-N^4-cycloheptyl-N^6-(3-fluoro-4-methoxyphenyl)-1,3,5-triazine-2,4,6-triamine]
[1]
  activity at 10 µM: 47%

## COc1ccc(Nc2nc(NC3CCCCCC3)nc(N3CCCCCC3)n2)cc1F [Compound 83, N^2-cycloheptyl-N^4-(3-fluoro-4-methoxyphenyl)-6-hexahydro-1H-azepin-1-yl-1,3,5-triazine-2,4-diamine]
[1]
  activity at 10 µM: 18%

## COc1ccc(Nc2nc(NC3CCCCCC3)nc(N3CCCC4CCCCC43)n2)cc1F (stereo not drawn) [Compound 84, N^2-cycloheptyl-N^4-(3-fluoro-4-methoxyphenyl)-6-octahydro-1(2H)-quinolinyl-1,3,5-triazine-2,4-diamine]
[1]
  activity at 10 µM: 33%

## COC[C@@H]1CCCN1c1nc(Nc2ccc(OC)c(F)c2)nc(NC2CCCCCC2)n1 [Compound 86, N^2-cycloheptyl-N^4-(3-fluoro-4-methoxyphenyl)-6-[(2S)-2-(methoxymethyl)-1-pyrrolidinyl]-1,3,5-triazine-2,4-diamine]
[1]
  activity at 10 µM: 19%

## COc1ccc(Nc2nc(NC3CCCCCC3)nc(N3CCN(C(C)=O)CC3)n2)cc1F [Compound 88, 6-(4-acetyl-1-piperazinyl)-N^2-cycloheptyl-N^4-(3-fluoro-4-methoxyphenyl)-1,3,5-triazine-2,4-diamine]
[1]
  activity at 10 µM: 19%

## COc1ccc(Nc2nc(NCc3ccco3)nc(NC3CCCCCC3)n2)cc1F [Compound 91, N^2-cycloheptyl-N^4-(3-fluoro-4-methoxyphenyl)-N^6-(2-furanylmethyl)-1,3,5-triazine-2,4,6-triamine]
[1]
  activity at 10 µM: 28%

## COc1ccc(Nc2nc(NCCN3CCCCC3)nc(NC3CCCCCC3)n2)cc1F [Compound 96, N^2-cycloheptyl-N^4-(3-fluoro-4-methoxyphenyl)-N^6-[2-(1-piperidinyl)ethyl]-1,3,5-triazine-2,4,6-triamine]
[1]
  activity at 10 µM: 6%

## COc1ccc(Nc2nc(NCCCCCO)nc(N(C)C3CCN(C)CC3)n2)cc1Cl [Compound 108, 5-{4-(3-Chloro-4-methoxy-phenylamino)-6-[methyl-(1-methyl-piperidin-4-yl)-amino]-[1,3,5]triazin-2-ylamino}-pentan-1-ol]
  Inhibition of TNF-induced IL6 production: +++ (between about 25 and about 50% of control IL6 production)
[2]
  activity at 10 µM: 25%

## CCCCN(CCC)c1nc(Nc2ccc(OC)c(Cl)c2)nc(N(C)C2CCN(C)CC2)n1 [Compound 111, N-Butyl-N′-(3-chloro-4-methoxy-phenyl)-N″-methyl-N″-(1-methyl-piperidin-4-yl)-N-propyl-[1,3,5]triazine-2,4,6-triamine]
  Inhibition of TNF-induced IL6 production: + (between about 75 and 100% of control IL6 production)
Homo sapiens, IL6
  activity at 5 µM: 46%
[2]
  activity at 10 µM: > 90%

## CCCCN(CCC)c1nc(Nc2ccc(OC)c(Cl)c2)nc(N(C)C2CCNCC2)n1 [Compound 112, N^2-Butyl-N^4-(3-chloro-4-methoxy-phenyl)-N^6-methyl-N^6-piperidin-4-yl-N^2-propyl-1,3,5-triazine-2,4,6-triamine]
  Inhibition of TNF-induced IL6 production: + (between about 75 and 100% of control IL6 production)
Homo sapiens, IL6
  activity at 5 µM: 90%

## CCN1CCC[C@H]1CNc1nc(NCC2CCCCC2)nc(Nc2ccc(OC)c(F)c2)n1 [Compound 141, N^2-cyclohexylmethyl-N^4-((S)-1-ethyl-pyrrolidin-2-ylmethyl)-N^6-(3-fluoro-4-methoxyphenyl)-1,3,5-triazine-2,4,6-triamine]
[1]
  activity at 10 µM: 23.4%

## CCN1CCC[C@@H]1CNc1nc(NCC2CCCCC2)nc(Nc2ccc(OC)c(F)c2)n1 [Compound 142, N^2-cyclohexylmethyl-N^4-((R)-1-ethyl-pyrrolidin-2-ylmethyl)-N^6-(3-fluoro-4-methoxyphenyl)-1,3,5-triazine-2,4,6-triamine]
[1]
  activity at 10 µM: 21.6%

## CCN1CCC[C@H]1CNc1nc(NC2CCCCCC2)nc(N(CC#N)c2ccccc2)n1 [Compound 143, ({4-cycloheptylamino-6-[((S)-1-ethyl-pyrrolidin-2-ylmethyl)-amino]-1,3,5-triazin-2-yl}-phenyl-amino)-acetonitrile]
[1]
  activity at 10 µM: 18.9%

## COc1ccc(Nc2nc(NC3CC3)nc(NC3CC3)n2)cc1F [Compound 157, N,N′-dicyclopropyl-N″-(3-fluoro-4-methoxy-phenyl)-1,3,5-triazine-2,4,6-triamine]
[1]
  activity at 10 µM: 60.5%

## CN1CCC(N(C)c2nc(Nc3ccc4ccccc4c3)nc(NC3CCCCCC3)n2)CC1 [Compound 172, N-Cycloheptyl-N′-methyl-N′-(1-methyl-piperidin-4-yl)-N″-naphthalen-2-yl-[1,3,5]triazine-2,4,6-triamine]
Compds tested @ 10 uM
  % IL6 production compare to TNF stimulation to IL6 (100%): 18%

## COc1ccc(Nc2nc(N3CCOCC3)nc(N3CCN(Cc4ccccc4)CC3)n2)cc1 [Compound 173, [4-(4-Benzyl-piperazin-1-yl)-6-morpholin-4-yl-[1,3,5]triazin-2-yl]-(4-methoxy-phenyl)-amine]
Compds tested @ 10 uM
  % IL6 production compare to TNF stimulation to IL6 (100%): 47%

## c1ccc2cc(Nc3nc(NC4CCCCCC4)nc(N4CCOCC4)n3)ccc2c1 [Compound 174, N-Cycloheptyl-6-morpholin-4-yl-N′-naphthalen-2-yl-[1,3,5]triazine-2,4-diamine]
Compds tested @ 10 uM
  % IL6 production compare to TNF stimulation to IL6 (100%): 34%

## COc1ccc(Nc2nc(NC3CCCCCC3)nc(N3CCOCC3)n2)cc1F [Compound 175, N-Cycloheptyl-N′-(3-fluoro-4-methoxy-phenyl)-6-morpholin-4-yl-[1,3,5]triazine-2,4-diamine]
Compds tested @ 10 uM
  % IL6 production compare to TNF stimulation to IL6 (100%): 18%

## c1ccc(Nc2nc(NC3CCCCCC3)nc(N3CCOCC3)n2)cc1 [Compound 176, N-Cycloheptyl-6-morpholin-4-yl-N′-phenyl-[1,3,5]triazine-2,4-diamine]
Compds tested @ 10 uM
  % IL6 production compare to TNF stimulation to IL6 (100%): 33%

## COc1ccc(Nc2nc(NC3CCCCCC3)nc(N(C)Cc3ccccc3)n2)cc1 [Compound 178, N-Benzyl-N′-cycloheptyl-N″-(4-methoxy-phenyl)-N-methyl-[1,3,5]triazine-2,4,6-triamine]
Compds tested @ 10 uM
  % IL6 production compare to TNF stimulation to IL6 (100%): 19%

Source: US7169785B2, “Methods and compositions of novel triazine compounds” (Reddy US Therapeutics, Inc., priority 2001, dated 2007)
